The source of these data is patent US20090012103A1, “SUBSTITUTED HETEROCYCLIC COMPOUNDS” (priority 2007, published 2009).

The target in one data set is hERG potassium channel (Homo sapiens, UniProt Q12809). As to the kind of experiment: hERG screening assay (PatchXpress patch clamp, CHO cell line). A general note: The hERG channel carries a current that helps repolarise heart muscle cells.
Data set [1] deals with wild-type human cardiac sodium channel, hNav1.5 (Homo sapiens, UniProt Q14524). Nature of the data set: Late INa screening assay (late sodium current, PatchXpress whole cell patch clamp). As to conditions: for inhibition at 10 µM: compound at 10 μM, read-out: Late INa % blk; for effect on late sodium current: result in words. The data set is classed as cell-based. (The patch-clamp technique gives a direct electrical read-out from membranes.)
Sequence of wild-type human cardiac sodium channel, hNav1.5 (Q14524 whole entry): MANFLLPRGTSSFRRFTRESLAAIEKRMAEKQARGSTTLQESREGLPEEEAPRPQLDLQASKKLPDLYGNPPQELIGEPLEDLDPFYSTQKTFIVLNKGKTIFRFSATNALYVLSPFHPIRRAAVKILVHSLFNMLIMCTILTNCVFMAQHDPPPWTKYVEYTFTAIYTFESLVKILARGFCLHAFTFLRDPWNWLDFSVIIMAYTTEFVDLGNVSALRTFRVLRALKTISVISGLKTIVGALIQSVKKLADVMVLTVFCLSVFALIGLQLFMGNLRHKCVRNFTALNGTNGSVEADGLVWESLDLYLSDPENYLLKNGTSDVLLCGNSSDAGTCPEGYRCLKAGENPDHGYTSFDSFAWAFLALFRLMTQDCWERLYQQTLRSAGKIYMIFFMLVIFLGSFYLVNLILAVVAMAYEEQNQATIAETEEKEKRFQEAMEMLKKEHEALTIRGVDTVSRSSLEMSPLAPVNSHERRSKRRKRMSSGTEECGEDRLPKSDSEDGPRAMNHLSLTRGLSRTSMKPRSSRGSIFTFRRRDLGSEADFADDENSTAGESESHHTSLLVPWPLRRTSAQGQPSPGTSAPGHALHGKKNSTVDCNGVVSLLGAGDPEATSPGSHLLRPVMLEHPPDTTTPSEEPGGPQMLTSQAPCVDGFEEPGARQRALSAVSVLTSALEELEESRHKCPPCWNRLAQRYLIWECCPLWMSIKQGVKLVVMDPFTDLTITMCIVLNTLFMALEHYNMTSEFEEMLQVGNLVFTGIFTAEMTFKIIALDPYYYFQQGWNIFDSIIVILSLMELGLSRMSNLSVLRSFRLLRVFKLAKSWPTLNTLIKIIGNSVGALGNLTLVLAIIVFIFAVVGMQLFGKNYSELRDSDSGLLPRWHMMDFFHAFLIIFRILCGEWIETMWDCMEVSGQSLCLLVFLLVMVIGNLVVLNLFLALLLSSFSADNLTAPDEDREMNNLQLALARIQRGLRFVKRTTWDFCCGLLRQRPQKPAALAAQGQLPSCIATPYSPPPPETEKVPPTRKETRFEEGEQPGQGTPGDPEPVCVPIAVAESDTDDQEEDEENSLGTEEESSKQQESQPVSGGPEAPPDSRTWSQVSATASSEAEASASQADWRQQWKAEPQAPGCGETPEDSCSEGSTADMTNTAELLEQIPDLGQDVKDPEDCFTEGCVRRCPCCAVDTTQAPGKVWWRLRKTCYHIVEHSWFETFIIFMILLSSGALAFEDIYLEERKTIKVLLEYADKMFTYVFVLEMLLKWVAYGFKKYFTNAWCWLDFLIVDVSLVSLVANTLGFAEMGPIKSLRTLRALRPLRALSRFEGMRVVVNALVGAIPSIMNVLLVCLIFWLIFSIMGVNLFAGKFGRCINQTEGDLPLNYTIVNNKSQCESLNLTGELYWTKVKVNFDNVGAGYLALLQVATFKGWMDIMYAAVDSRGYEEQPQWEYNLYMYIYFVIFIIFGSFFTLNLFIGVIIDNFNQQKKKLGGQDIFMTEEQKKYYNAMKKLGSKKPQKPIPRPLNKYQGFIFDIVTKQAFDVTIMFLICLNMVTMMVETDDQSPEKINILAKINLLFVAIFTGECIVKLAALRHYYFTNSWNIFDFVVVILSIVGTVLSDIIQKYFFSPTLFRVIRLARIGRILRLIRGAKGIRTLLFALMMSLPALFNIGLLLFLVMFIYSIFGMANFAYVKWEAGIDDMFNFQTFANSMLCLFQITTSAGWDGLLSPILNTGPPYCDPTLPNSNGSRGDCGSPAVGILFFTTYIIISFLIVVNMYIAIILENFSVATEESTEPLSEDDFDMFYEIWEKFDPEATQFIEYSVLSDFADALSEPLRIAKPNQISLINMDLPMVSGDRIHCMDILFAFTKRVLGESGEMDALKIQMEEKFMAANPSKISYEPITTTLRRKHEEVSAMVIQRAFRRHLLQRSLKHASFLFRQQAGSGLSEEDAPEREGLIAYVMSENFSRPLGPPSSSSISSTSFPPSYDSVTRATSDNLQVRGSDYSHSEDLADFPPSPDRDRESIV

Sequence of hERG potassium channel (Q12809 whole entry): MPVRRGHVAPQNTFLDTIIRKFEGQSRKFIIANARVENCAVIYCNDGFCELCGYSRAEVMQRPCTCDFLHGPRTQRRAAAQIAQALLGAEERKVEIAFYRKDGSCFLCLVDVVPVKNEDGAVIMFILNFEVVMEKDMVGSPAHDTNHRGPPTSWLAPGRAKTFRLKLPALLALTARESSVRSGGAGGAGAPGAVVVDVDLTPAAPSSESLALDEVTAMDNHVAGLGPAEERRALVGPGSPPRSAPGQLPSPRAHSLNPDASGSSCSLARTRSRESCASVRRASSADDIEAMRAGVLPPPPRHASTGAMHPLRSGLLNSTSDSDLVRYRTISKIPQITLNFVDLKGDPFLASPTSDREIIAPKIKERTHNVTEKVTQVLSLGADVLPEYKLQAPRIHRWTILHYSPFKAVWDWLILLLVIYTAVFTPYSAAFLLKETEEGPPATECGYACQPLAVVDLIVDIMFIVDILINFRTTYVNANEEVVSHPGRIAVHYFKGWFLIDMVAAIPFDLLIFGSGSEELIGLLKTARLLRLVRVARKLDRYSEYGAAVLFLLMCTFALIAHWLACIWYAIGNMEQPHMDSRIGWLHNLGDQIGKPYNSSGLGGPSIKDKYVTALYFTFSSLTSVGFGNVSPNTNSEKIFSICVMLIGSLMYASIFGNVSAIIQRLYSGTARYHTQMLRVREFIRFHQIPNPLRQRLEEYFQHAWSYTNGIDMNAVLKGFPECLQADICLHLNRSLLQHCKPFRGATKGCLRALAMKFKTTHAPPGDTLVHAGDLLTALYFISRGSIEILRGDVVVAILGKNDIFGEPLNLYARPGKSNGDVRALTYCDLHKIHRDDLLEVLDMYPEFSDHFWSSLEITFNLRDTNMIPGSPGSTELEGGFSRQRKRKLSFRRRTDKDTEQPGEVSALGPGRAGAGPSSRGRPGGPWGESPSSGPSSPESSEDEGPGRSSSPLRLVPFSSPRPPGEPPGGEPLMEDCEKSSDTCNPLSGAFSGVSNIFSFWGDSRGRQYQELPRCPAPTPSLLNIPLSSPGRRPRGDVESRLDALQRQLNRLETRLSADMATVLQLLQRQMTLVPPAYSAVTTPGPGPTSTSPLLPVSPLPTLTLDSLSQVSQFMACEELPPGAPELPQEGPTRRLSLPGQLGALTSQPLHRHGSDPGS

As to `CCCC1=C(C(=O)OCC)C(c2ccsc2)C2=C(CC(c3ccco3)CC2=O)N1` (stereo not drawn) [PT-150, ethyl 7-(furan-2-yl)-5-oxo-2-propyl-4-(thiophen-3-yl)-1,4,5,6,7,8-hexahydroquinoline-3-carboxylate], the “hERG Patch Clamp hERG % blk” value is 28.2% on hERG potassium channel (1 μM) and 49.3% at hERG potassium channel (10 μM). Besides, in data set [1], the inhibition at 10 µM was 52.9%.
As for `CC1=C(C(=O)N2CCC(c3ccccc3)CC2)C(c2ccsc2)C2=C(CCCC2=O)N1` (stereo not drawn) [PT-163, 2-methyl-3-(4-phenylpiperidine-1-carbonyl)-4-(thiophen-3-yl)-4,6,7,8-tetrahydroquinolin-5(1H)-one], the “hERG Patch Clamp hERG % blk” value at hERG potassium channel (1 μM) stood at 15.0%; at hERG potassium channel (10 μM), 53.5%. In addition, in data set [1], the “effect on late sodium current” value is reported as “potentiated late sodium current”.
With `CC1=C(C(=O)N2CCN(c3ccccc3)CC2)C(c2ccc3ccccc3c2)C2=C(CCCC2=O)N1` (stereo not drawn) [PT-165, 2-methyl-4-(naphthalen-2-yl)-3-(4-phenylpiperazine-1-carbonyl)-4,6,7,8-tetrahydroquinolin-5(1H)-one], the “hERG Patch Clamp hERG % blk” value is given as 30.5% on hERG potassium channel (1 μM) and 64.5% at hERG potassium channel (10 μM). The “effect on late sodium current” value in data set [1] is on record as “potentiated late sodium current”.
With `CC1=C(C(=O)NCc2ccccc2)C(c2ccsc2)C2=C(CCCC2=O)N1` (stereo not drawn) [PT-178, N-benzyl-2-methyl-5-oxo-4-(thiophen-3-yl)-1,4,5,6,7,8-hexahydroquinoline-3-carboxamide], the “hERG Patch Clamp hERG % blk” value is 11.5% on hERG potassium channel (1 μM) and 30.0% on hERG potassium channel (10 μM). Moreover, the inhibition at 10 µM in data set [1] worked out at 0.3%.
`CCOC(=O)C1=C(C(C)C)NC(C(C)C)=C(C(=O)OCC)C1c1ccc(Br)s1` [PT-183, diethyl 4-(5-bromothiophen-2-yl)-2,6-diisopropyl-1,4-dihydropyridine-3,5-dicarboxylate]: the “hERG Patch Clamp hERG % blk” value at hERG potassium channel (1 μM) and on hERG potassium channel (10 μM) was 10.0% each time. Further, in data set [1], the inhibition at 10 µM worked out at 54%.
On to `CCOC(=O)C1=C(C)NC2=C(C(=O)CCC2)C1c1ccnc2ccccc12` (stereo not drawn) [PT-190, ethyl 2-methyl-5-oxo-1,4,5,6,7,8-hexahydro-4,4′-biquinoline-3-carboxylate], for which the “hERG Patch Clamp hERG % blk” value at hERG potassium channel (1 μM) came out at 10.5%; at hERG potassium channel (10 μM) it was 32.0%. In addition, the inhibition at 10 µM in data set [1] worked out at 4.2%.
The matching figures for `CC1=C(C(=O)OCc2ccccc2)[C@@H](c2ccccc2-c2ccc(Cl)s2)n2nnnc2N1` [PT-237, (R)-benzyl 7-(2-(5-chlorothiophen-2-yl)phenyl)-5-methyl-4,7-dihydrotetrazolo[1,5-a]pyrimidine-6-carboxylate]: 11.5%, 22.5% and 61.5%.
For `CC1=C(C(=O)OCc2ccccc2)C(c2ccccc2-c2ccc(C(=O)O)cc2)C2=C(CCCC2=O)N1` (stereo not drawn) [PT-249, 2′-(3-(benzyloxycarbonyl)-2-methyl-5-oxo-1,4,5,6,7,8-hexahydroquinolin-4-yl)biphenyl-4-carboxylic acid], in that order: 11.5%, 15.5% and 20%.
Turning to `CC1=C(c2nnc(CCc3ccccc3)o2)C(c2cccc3ccccc23)n2nnnc2N1` (stereo not drawn) [PT-252, 2-(5-methyl-7-(naphthalen-1-yl)-4,7-dihydrotetrazolo[1,5-a]pyrimidin-6-yl)-5-phenethyl-1,3,4-oxadiazole], the “hERG Patch Clamp hERG % blk” value came out at 10.5% on hERG potassium channel (1 μM) and 78.0% on hERG potassium channel (10 μM). For the same molecule, in data set [1], the inhibition at 10 µM came out at 70%.
For `CC1=C(C(=O)OCc2ccccc2)C(c2ccccc2-c2ccc(C(=O)O)cc2)n2nnnc2N1` (stereo not drawn) [PT-254, 2′-(6-(benzyloxycarbonyl)-5-methyl-4,7-dihydrotetrazolo[1,5-a]pyrimidin-7-yl)biphenyl-4-carboxylic acid], in that order: 15.0%, 20.0% and 10.7%.
With `CC1=C(C(=O)OCc2ccc(Cn3cccn3)cc2)C(c2cccc3ccccc23)n2nnnc2N1` (stereo not drawn) [PT-279, 4-((1H-pyrazol-1-yl)methyl)benzyl 5-methyl-7-(naphthalen-1-yl)-4,7-dihydrotetrazolo[1,5-a]pyrimidine-6-carboxylate], the figures for the “hERG Patch Clamp hERG % blk” value on hERG potassium channel (1 μM) and on hERG potassium channel (10 μM) were 12.5% and 45.0%, respectively. For the same molecule, the inhibition at 10 µM in data set [1] was 61.2%.
Consider `CC1=C(C(=O)OCc2ccc(Cn3cccn3)cc2)C(c2cccs2)n2nnnc2N1` (stereo not drawn) [PT-280, 4-((1H-pyrazol-1-yl)methyl)benzyl 5-methyl-7-(thiophen-2-yl)-4,7-dihydrotetrazolo[1,5-a]pyrimidine-6-carboxylate], for which the “hERG Patch Clamp hERG % blk” value at hERG potassium channel (1 μM) is recorded as 11.5%; on hERG potassium channel (10 μM), 48.0%. Besides, in data set [1], the inhibition at 10 µM was determined as 45.9%.
For `COc1cc(Cl)ccc1COC(=O)C1=C(C)NC2=C(C(=O)CCC2)C1c1c(Cl)cccc1Cl` (stereo not drawn) [PT-303, 4-chloro-2-methoxybenzyl 4-(2,6-dichlorophenyl)-2-methyl-5-oxo-1,4,5,6,7,8-hexahydroquinoline-3-carboxylate], in that order: 12.0%, 30.5% and 59.9%.
Regarding `CC1=C(C(=O)OCc2ccccc2)C(c2ccccc2N2CCCCC2)n2nnnc2N1` (stereo not drawn) [PT-342, benzyl 5-methyl-7-(2-(piperidin-1-yl)phenyl)-4,7-dihydrotetrazolo[1,5-a]pyrimidine-6-carboxylate], the “hERG Patch Clamp hERG % blk” value on hERG potassium channel (1 μM) worked out at 10.0%; at hERG potassium channel (10 μM) it was 47.5%. Moreover, in data set [1], the inhibition at 10 µM was determined as 80.1%.
`CC1=C(C(=O)OCc2ccccc2)C(c2nccs2)n2nccc2N1` (stereo not drawn) [PT-363, benzyl 5-methyl-7-(thiazol-2-yl)-4,7-dihydropyrazolo[1,5-a]pyrimidine-6-carboxylate]: the entries for the “hERG Patch Clamp hERG % blk” value at hERG potassium channel (1 μM) and at hERG potassium channel (10 μM) were 10.0% and 19.5%, respectively. Besides, in data set [1], the inhibition at 10 µM came to 40.9%.
For `CC1=C(C(=O)OCc2ccccc2)C(c2nccs2)n2nnnc2N1` (stereo not drawn) [PT-364, benzyl 5-methyl-7-(thiazol-2-yl)-4,7-dihydrotetrazolo[1,5-a]pyrimidine-6-carboxylate], in that order: 10.0%, 17.5% and 25.8%.
For `CC1=C(C(=O)OCc2ccccc2)C(c2ccccc2-c2ccc(NS(C)(=O)=O)cc2)c2cn[nH]c2N1` (stereo not drawn) [PT-366, benzyl 6-methyl-4-(4′-(methylsulfonamido)biphenyl-2-yl)-4,7-dihydro-1H-pyrazolo[3,4-b]pyridine-5-carboxylate], in that order: 28.0%, 92.0% and 87.8%.
As for `CCS(=O)(=O)N1CCN(c2cccc(OC)c2C2C(C(=O)OCc3ccccc3)=C(C)Nc3nnnn32)CC1` (stereo not drawn) [PT-378, benzyl 7-(2-(4-(ethylsulfonyl)piperazin-1-yl)-6-methoxyphenyl)-5-methyl-4,7-dihydrotetrazolo[1,5-a]pyrimidine-6-carboxylate], the “hERG Patch Clamp hERG % blk” value on hERG potassium channel (1 μM) is 10.0%; on hERG potassium channel (10 μM) it was 41.5%. Further, the inhibition at 10 µM in data set [1] is 42%.
The matching figures for `CC1=C(C(=O)OCc2ccccc2)C(c2c(Br)sc3ccccc23)n2nnnc2N1` (stereo not drawn) [PT-386, benzyl 7-(2-bromobenzo[b]thiophen-3-yl)-5-methyl-4,7-dihydrotetrazolo[1,5-a]pyrimidine-6-carboxylate]: 10.0%, 16.5% and 79.2%.
Regarding `CC1=C(C(=O)OCc2ccccc2)C(c2occc2-c2ccc(F)cc2)n2nnnc2N1` (stereo not drawn) [PT-396, benzyl 7-(3-(4-fluorophenyl)furan-2-yl)-5-methyl-4,7-dihydrotetrazolo[1,5-a]pyrimidine-6-carboxylate], the “hERG Patch Clamp hERG % blk” value at hERG potassium channel (1 μM) is given as 10.0%; at hERG potassium channel (10 μM) it was 32.0%. For the same molecule, the inhibition at 10 µM in data set [1] worked out at 80.7%.
On to `CC1=C(C(=O)OCc2ccccc2)C(c2sccc2-c2ccc(F)cc2)n2nnnc2N1` (stereo not drawn) [PT-397, benzyl 7-(3-(4-fluorophenyl)thiophen-2-yl)-5-methyl-4,7-dihydrotetrazolo[1,5-a]pyrimidine-6-carboxylate], for which the results for the “hERG Patch Clamp hERG % blk” value at hERG potassium channel (1 μM) and at hERG potassium channel (10 μM) were 10.0% and 25.0%, respectively. The inhibition at 10 µM in data set [1] was found to be 69.1%.
Consider `CC1=C(C(=O)OCc2ccccc2)C(c2ccc(N(C)C)cc2[N+](=O)[O-])n2nnnc2N1` (stereo not drawn) [PT-409, benzyl 7-(4-(dimethylamino)-2-nitrophenyl)-5-methyl-4,7-dihydrotetrazolo[1,5-a]pyrimidine-6-carboxylate], for which the “hERG Patch Clamp hERG % blk” value on hERG potassium channel (1 μM) worked out at 27.0%; on hERG potassium channel (10 μM), 78.5%. Also, the inhibition at 10 µM in data set [1] was 43.1%.
Consider `CC(=O)c1ccc(-c2ccccc2C2C(C(=O)OCc3ccccc3)=C(C)Nc3nnnn32)cc1` (stereo not drawn) [PT-415, benzyl 7-(4′-acetylbiphenyl-2-yl)-5-methyl-4,7-dihydrotetrazolo[1,5-a]pyrimidine-6-carboxylate], for which the “hERG Patch Clamp hERG % blk” value worked out at 10.5% at hERG potassium channel (1 μM) and 38.5% on hERG potassium channel (10 μM). Besides, the inhibition at 10 µM in data set [1] was 75.4%.
In the case of `CCOC(=O)C1=C(C)Nc2c(c(C)nn2C)C1c1cccc2ccccc12` (stereo not drawn) [PT-440, ethyl 1,3,6-trimethyl-4-(naphthalen-1-yl)-4,7-dihydro-1H-pyrazolo[3,4-b]pyridine-5-carboxylate], the “hERG Patch Clamp hERG % blk” value stood at 12.0% on hERG potassium channel (1 μM) and 48.0% at hERG potassium channel (10 μM). Also, the inhibition at 10 µM in data set [1] was 42.8%.
Turning to `CCOC(=O)C1=C(C)Nc2[nH]ncc2C1c1ccccc1Br` (stereo not drawn) [PT-448, ethyl 4-(2-bromophenyl)-6-methyl-4,7-dihydro-1H-pyrazolo[3,4-b]pyridine-5-carboxylate], the entries for the “hERG Patch Clamp hERG % blk” value at hERG potassium channel (1 μM) and on hERG potassium channel (10 μM) were 10.0% and 57.5%, respectively. Further, in data set [1], the inhibition at 10 µM came out at 33.6%.
